Values quoted from earlier work, collected in patent publication US20120101168A1, “DEUTERIUM ENRICHED RASAGILINE” (priority 2010, published 2012).

What was measured:
[1] = target: CYP1A2 (Homo sapiens, UniProt P05177); details: forms several primary metabolites
[2] = system: MAO; details: more potent, but not in-vitro

Sequence of CYP1A2 (P05177 whole entry): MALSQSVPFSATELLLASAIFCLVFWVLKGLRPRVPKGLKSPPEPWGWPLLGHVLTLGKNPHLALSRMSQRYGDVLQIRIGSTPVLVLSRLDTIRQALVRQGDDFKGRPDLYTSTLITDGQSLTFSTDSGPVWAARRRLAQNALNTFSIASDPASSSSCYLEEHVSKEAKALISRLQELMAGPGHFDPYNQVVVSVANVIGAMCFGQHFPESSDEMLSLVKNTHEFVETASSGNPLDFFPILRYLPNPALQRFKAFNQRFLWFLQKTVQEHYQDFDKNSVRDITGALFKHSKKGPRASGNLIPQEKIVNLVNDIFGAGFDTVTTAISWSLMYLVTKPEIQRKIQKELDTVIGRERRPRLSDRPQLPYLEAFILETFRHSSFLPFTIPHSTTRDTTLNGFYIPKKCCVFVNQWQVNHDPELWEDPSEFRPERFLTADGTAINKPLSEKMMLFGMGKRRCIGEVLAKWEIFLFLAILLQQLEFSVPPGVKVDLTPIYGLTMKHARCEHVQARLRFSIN

Compound | metabolism by CYP1A2 [1] | MAO inhibition potency compared with non-deuterated phenelzine [2]
C#CCN[C@@H]1CCc2ccccc21 [Rasagiline, R(+)-N-propargyl-1-aminoindan] | slowly metabolized | –
[2H]C([2H])(NN)C([2H])([2H])c1ccccc1 [deuterated phenelzine] | – | more potent MAO inhibitor
